≈ marks a conversion by molar mass, not a printed value.
Assays:
[1] = system: human OA cartilage explants; experiment: Aggrecan release from human OA cartilage explants (DMMB assay); assay type: cell-based; conditions: 48 hours
Method: The effects of suramin on cartilage degradation were assessed using porcine or human cartilage explants. Explants were rested for 48 hours after dissection and were washed with serum-free DMEM. Explants were then treated with retinoic acid (1 µM; Sigma-Aldrich), interleukin (IL)-1 (10 ng/ml; Peprotech, London, UK), and/or suramin (0–250 µg/ml) in serum-free DMEM for 48 hours.
Aggrecan degradation was analyzed by quantifying aggrecan fragments released into the conditioned media using the dimethylmethylene blue (DMMB) dye-binding assay ([Farndale et al., 1986]) (mean ± S.D., n = 3) and by immunoblotting with neo-epitope antibodies that recognize ADAMTS-cleaved but not intact aggrecan. For immunoblotting, conditioned media were deglycosylated by adding an equal volume of 200 mM sodium acetate and 50 mM Tris/HCl, pH 6.8, containing chondroitinase and β-endoglycosidase (0.05 U each; 18 hours, 37°C; Sigma-Aldrich). Aggrecan fragments were precipitated by adding five volumes of ice-cold acetone (18 hours, −20°C). After centrifugation (13,000 rpm, 10 minutes, 4°C), pellets were resuspended in SDS sample buffer, separated by electrophoresis on a 6% (v/v) polyacrylamide gel, and blotted onto polyvinylidene fluoride. […]

LRP1 ectodomain = experiment: Shedding of LRP1 ectodomain into medium of HTB94 cells (immunoblot); assay type: cell-based; conditions: suramin 50–250 µg/ml, 30 hours
MMP-2 = target: T1, MMP-2 (Homo sapiens, UniProt P08253); experiment: MMP-2 activity in vitro (data not shown); assay type: biochemical
T1 sequence (P08253 110-660): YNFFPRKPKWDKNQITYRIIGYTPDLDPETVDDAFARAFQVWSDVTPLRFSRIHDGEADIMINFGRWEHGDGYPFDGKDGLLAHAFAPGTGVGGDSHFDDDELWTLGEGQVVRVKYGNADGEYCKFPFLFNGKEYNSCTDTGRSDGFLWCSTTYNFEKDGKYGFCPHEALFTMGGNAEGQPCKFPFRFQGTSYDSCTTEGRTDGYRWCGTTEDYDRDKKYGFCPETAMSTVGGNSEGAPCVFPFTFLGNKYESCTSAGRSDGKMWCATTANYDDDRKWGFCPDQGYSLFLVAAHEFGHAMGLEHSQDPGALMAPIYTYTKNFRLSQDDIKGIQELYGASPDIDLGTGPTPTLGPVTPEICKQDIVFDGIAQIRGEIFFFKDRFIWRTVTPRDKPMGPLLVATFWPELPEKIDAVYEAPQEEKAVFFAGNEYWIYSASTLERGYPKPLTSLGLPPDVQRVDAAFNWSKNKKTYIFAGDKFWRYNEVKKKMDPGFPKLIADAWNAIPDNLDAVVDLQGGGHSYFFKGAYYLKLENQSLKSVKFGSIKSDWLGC

TIMP-2 mRNA = TIMP-2 mRNA analysis in HTB94 cells (quantitative PCR); assay type: cell-based; conditions: suramin 0–250 µg/ml, 18 hours
Method: (§1) HTB94 chondrosarcoma cells or primary human chondrocytes (1 × 10^6 cells) were treated in triplicate with 0–250 µg/ml suramin in serum-free DMEM for 18–48 hours. Total RNA was isolated from cells using an RNeasy mini kit (Qiagen, Crawley, UK) and cDNA was synthesized (reverse transcriptase kit; Applied Biosystems, Foster City, CA). Levels of TIMP-1, TIMP-2, TIMP-3, LRP1, and RPLP0 internal reference mRNA were quantified by real-time polymerase […] chain reaction on a Corbett Rotor-Gene 6000 (Corbett Life Science, Mortlake, NSW, Australia) using TaqMan Fast Universal PCR Master Mix (Applied Biosystems) and TaqMan probes (Applied Biosystems) Hs01092512_g1 for TIMP-1, Hs00234278_m1 for TIMP-2, Hs00165949_m1 for TIMP-3, Hs00233856_m1 for LRP1, and Hs99999902_m1 for RPLP0. The ΔΔ threshold cycle values (mean ± S.D., n = 3 technical replicates) are shown relative to control untreated HTB94 cells (defined as 1).

[2] = system: HTB94 chondrosarcoma cells; experiment: Accumulation of endogenous TIMP-3 in medium of HTB94 cells; assay type: cell-based; conditions: suramin 50–200 µg/ml, 30 hours
Method: Cells (HTB94 chondrosarcoma cells, primary porcine chondrocytes, or human osteoarthritic chondrocytes) were plated overnight (6 × 10^5 cells per well of a 12-well plate) in DMEM containing 10% FCS and washed three times in serum-free DMEM.
Media were harvested, precipitated with trichloroacetic acid, and analyzed by immunoblotting using a rabbit anti–TIMP-3 polyclonal antibody (AB6000; Millipore, Hertfordshire, UK) and an alkaline phosphatase–conjugated anti-rabbit secondary antibody (Promega). […]

LRP1 mRNA = LRP1 mRNA analysis in HTB94 cells (quantitative PCR); assay type: cell-based; conditions: 18 hours
Method: as §1

[3] = system: primary chondrocytes isolated from normal porcine cartilage; experiment: Accumulation of endogenous TIMP-3 in medium of porcine chondrocytes; assay type: cell-based; conditions: suramin 0–250 µg/ml, 48 hours
Method: Cells (HTB94 chondrosarcoma cells, primary porcine chondrocytes, or human osteoarthritic chondrocytes) were plated overnight (6 × 10^5 cells per well of a 12-well plate) in DMEM containing 10% FCS and washed three times in serum-free DMEM. […] Media were harvested, precipitated with trichloroacetic acid, and analyzed by immunoblotting using a rabbit anti–TIMP-3 polyclonal antibody (AB6000; Millipore, Hertfordshire, UK) and an alkaline phosphatase–conjugated anti-rabbit secondary antibody (Promega). TIMP-3 in the medium (mean ± S.D., n = 3) was calculated relative to the pixel volume of untreated cells (defined as 1).

[4] = system: rat inflammatory arthritis model; set-up: method as in Sahu et al., 2012; conditions: ref Sahu et al., 2012; cited from earlier work
TIMP-1 mRNA = TIMP-1 mRNA analysis in HTB94 cells (quantitative PCR); assay type: cell-based; conditions: suramin 0–250 µg/ml, 18 hours
Method: as §1

MMP-9 = system: MMP-9; set-up: method as in Taniguti et al., 2012; conditions: ref Taniguti et al., 2012; cited from earlier work

Compound: Cc1ccc(C(=O)Nc2ccc(S(=O)(=O)O)c3cc(S(=O)(=O)O)cc(S(=O)(=O)O)c23)cc1NC(=O)c1cccc(NC(=O)Nc2cccc(C(=O)Nc3cc(C(=O)Nc4ccc(S(=O)(=O)O)c5cc(S(=O)(=O)O)cc(S(=O)(=O)O)c45)ccc3C)c2)c1 [suramin]
- aggrecan degradation ([1]; human OA cartilage explants stimulated with IL-1 10 ng/ml or retinoic acid 1 µM): dose-dependently inhibited
- IC50 ([1]; human OA cartilage explants, retinoic acid 1 µM, read-out: IC50 for inhibition of aggrecan degradation): 62 ± 16 µg/mL (≈ 47.8 µM)
- shedding of LRP1 ectodomain into the medium (LRP1 ectodomain): not affected
- MMP-2 activity in vitro (MMP-2): inhibit MMP-2 activity
- TIMP-2 mRNA levels (TIMP-2 mRNA): no effect
- endogenous TIMP-3 in the medium [2]: accumulated
- increase in expression of LRP1 mRNA (LRP1 mRNA; suramin 250 µg/ml): 3 fold
- expression of LRP1 mRNA (LRP1 mRNA; suramin up to 200 µg/ml): unaffected
- endocytosis of endogenously expressed TIMP-3 [3]: inhibited endocytosis
- cartilage damage [4]: ameliorate cartilage damage
- TIMP-1 mRNA levels (TIMP-1 mRNA): no effect
- MMP-9 activity (MMP-9): inhibit MMP-9 activity
